Results reported in the NIST ThermoML archive (doi:10.1021/je060271a).
Numbers after ± are expanded uncertainties.

Conditions: 303.15 K, Liquid, Vibrating tube method

Measured: mass density

CCCCC(=O)OCC(COC(=O)CCCC)(COC(=O)CCCC)COC(=O)CCCC [pentaerythritol tetrapentanoate]
1023.2 ± 1.2 kg/m3: 19778 kPa | 19813 kPa | 19856 kPa | 19930 kPa | 19968 kPa | 20090 kPa
1024.7 ± 1.2 kg/m3: 22343 kPa | 22517 kPa | 22583 kPa | 22656 kPa | 22688 kPa
1025.3 ± 1.2 kg/m3: 23492 kPa | 23609 kPa | 23680 kPa
1024.2 ± 1.2 kg/m3: 21500 kPa | 21593 kPa | 21622 kPa | 21688 kPa | 21784 kPa | 21881 kPa
1022.7 ± 1.2 kg/m3: 19127 kPa
1025 ± 1.2 kg/m3: 23084 kPa | 23154 kPa | 23195 kPa
1023.3 ± 1.2 kg/m3: 20013 kPa | 20134 kPa | 20186 kPa | 20215 kPa
1023.5 ± 1.2 kg/m3: 20265 kPa | 20370 kPa | 20396 kPa | 20451 kPa | 20506 kPa
1024.4 ± 1.2 kg/m3: 21718 kPa | 21844 kPa | 21911 kPa | 21942 kPa | 21979 kPa | 22046 kPa | 22109 kPa
1023 ± 1.2 kg/m3: 19372 kPa | 19480 kPa | 19515 kPa | 19556 kPa | 19630 kPa
1022.8 ± 1.2 kg/m3: 19023 kPa | 19094 kPa | 19232 kPa | 19265 kPa | 19304 kPa
1023.8 ± 1.2 kg/m3: 20806 kPa | 20837 kPa | 20920 kPa | 20974 kPa | 21089 kPa | 21122 kPa | 21263 kPa
1023.6 ± 1.2 kg/m3: 20290 kPa | 20425 kPa | 20481 kPa | 20532 kPa | 20561 kPa | 20587 kPa | 20644 kPa | 20671 kPa | 20697 kPa | 20754 kPa
1025.5 ± 1.2 kg/m3: 23761 kPa | 23843 kPa | 23926 kPa | 23996 kPa | 24084 kPa
1024.9 ± 1.2 kg/m3: 22794 kPa | 22828 kPa | 22868 kPa | 22901 kPa | 22942 kPa | 22975 kPa | 23009 kPa
1022.9 ± 1.2 kg/m3: 19159 kPa | 19198 kPa | 19338 kPa | 19412 kPa | 19446 kPa
1024.1 ± 1.2 kg/m3: 21324 kPa | 21351 kPa | 21384 kPa | 21440 kPa | 21472 kPa | 21528 kPa | 21557 kPa
1023.1 ± 1.2 kg/m3: 19590 kPa | 19702 kPa | 19736 kPa | 19893 kPa
1023.7 ± 1.2 kg/m3: 20613 kPa | 20723 kPa | 20780 kPa | 20890 kPa | 20947 kPa | 21007 kPa
1023.9 ± 1.2 kg/m3: 20864 kPa | 21030 kPa | 21062 kPa | 21149 kPa
1025.4 ± 1.2 kg/m3: 23646 kPa | 23726 kPa | 23878 kPa
1024 ± 1.2 kg/m3: 21176 kPa | 21208 kPa | 21236 kPa | 21291 kPa | 21412 kPa
1025.8 ± 1.2 kg/m3: 24285 kPa | 24353 kPa | 24383 kPa
1024.8 ± 1.2 kg/m3: 22550 kPa | 22622 kPa | 22722 kPa | 22761 kPa
1024.6 ± 1.2 kg/m3: 22210 kPa | 22242 kPa | 22279 kPa | 22311 kPa | 22375 kPa | 22414 kPa | 22446 kPa | 22478 kPa
1025.2 ± 1.2 kg/m3: 23265 kPa | 23307 kPa | 23342 kPa | 23378 kPa | 23413 kPa | 23456 kPa | 23534 kPa
1025.7 ± 1.2 kg/m3: 24033 kPa | 24162 kPa | 24250 kPa | 24316 kPa
1024.3 ± 1.2 kg/m3: 21658 kPa | 21754 kPa | 21814 kPa
1023.4 ± 1.2 kg/m3: 20051 kPa | 20161 kPa | 20240 kPa | 20321 kPa | 20346 kPa
1025.1 ± 1.2 kg/m3: 23043 kPa | 23119 kPa | 23230 kPa | 23572 kPa
1022.6 ± 1.2 kg/m3: 18990 kPa | 19056 kPa
1024.5 ± 1.2 kg/m3: 22009 kPa | 22077 kPa | 22140 kPa | 22178 kPa
1025.6 ± 1.2 kg/m3: 23798 kPa | 23961 kPa | 24123 kPa | 24202 kPa
